Usually Ki stands for the dissociation constant of the complex between target and ligand, obtained from inhibition or displacement.

Among the data in US11261478B2, “Thermal stable luciferase with improved resistance to inhibition by luciferin break-down products” (priority 2016, dated 2022) are Ki values, retold here.

For experiment [1], the target named is UltraGlo luciferase variant Triple+300 (H244W, T344A, I396K, C300G), SEQ ID NO: 11 (Photuris pensylvanica, UniProt Q27757, A101V/A17E/A262V/C221A/D34A/D353K/D394P/E2A/F294L/F367L/F500Y/G84S/H14Y/H220I/H244W/I125V/I173S/I396K/K413N/L193S/L91V/N183Y/N412D/N499D/P295A/R357K/S105N/S204P/S36P/S399G/S502A/T234S/T249M/T344A/T354G/T386P/V145I/V194I/V203L/V300G/V356A/Y144S/Y27D). In words: Competitive inhibition of F-luciferin luminescence by dehydro-F-luciferin, purified Triple+300 luciferase mutant. Format: biochemical. The settings on record: F-luciferin 1 mM, ATP 0.5 mM final, 3 minutes at room temperature, Michaelis-Menten competitive inhibition model. The protocol: (§1) To explore the inhibition of F-luciferin luminescence by dehydro-F-luciferin by combination mutants, the mutant Triple+300 (H244W, T344A, I396K, C300G) was screened for its resistance to dehydroluciferin.
(§2) Purified UltraGlo and Triple+300 luciferase enzymes were serially diluted from stocks in 1×TBS+1.0% Prionex to a concentration of 0.01 mg/ml. Racemic F-luciferin was serially diluted from stocks in water to 22 mM. Racemic dehydro-F-luciferin was serially diluted from stocks in water to 10 mM, and then 8 consecutive 4-fold serial dilutions were carried out for each concentration tested. ATP was diluted to 1 mM in BrightGlo Buffer or Detection Reagent buffer (depending on final reaction destination) to 1 mM concentration.
(§3) The following components were then combined into wells of a flat bottom, white, 96-well plate: 50 ul diluted ATP in buffer (BrightGlo or Detection Reagent; 0.5 mM final concentration), 50 ul diluted luciferase enzyme ([…] final concentration), 5 ul diluted F-luciferin (1 mM final concentration), and 4 ul diluted dehydro-F-luciferin ([…] final concentration)
(§4) Reactions were incubated for 3 minutes at room temperature, and luminescence was measured using a GloMax Multi+plate reader. Data were analyzed in GraphPad Prism 7 using nonlinear regression by fitting the data to a Michaelis-Menten competitive inhibition enzyme kinetic model.

Experiment [2] addresses T1, UltraGlo luciferase (parent, ULTRA GLO luciferase, SEQ ID NO: 3) (Photuris pensylvanica, UniProt Q27757, A101V/A17E/A262V/C221A/D34A/D353K/D394P/E2A/F294L/F367L/F500Y/G84S/H14Y/H220I/I125V/I173S/K413N/L193S/L91V/N183Y/N412D/N499D/P295A/R357K/S105N/S204P/S36P/S399G/S502A/T234S/T249M/T354G/T386P/V145I/V194I/V203L/V300C/V356A/Y144S/Y27D).
T1 construct: full length, 552 aa
Briefly: Competitive inhibition of F-luciferin luminescence by dehydro-F-luciferin, purified UltraGlo luciferase. In kind it is biochemical. The note with it: F-luciferin 1 mM, ATP 0.5 mM final, 3 minutes at room temperature, Michaelis-Menten competitive inhibition model. The protocol:
as §1, §2, §3, §4

Molecules are shown by their SMILES.

T1 sequence (Q27757 other isoform, or with tags, fused parts or gaps with the stated changes): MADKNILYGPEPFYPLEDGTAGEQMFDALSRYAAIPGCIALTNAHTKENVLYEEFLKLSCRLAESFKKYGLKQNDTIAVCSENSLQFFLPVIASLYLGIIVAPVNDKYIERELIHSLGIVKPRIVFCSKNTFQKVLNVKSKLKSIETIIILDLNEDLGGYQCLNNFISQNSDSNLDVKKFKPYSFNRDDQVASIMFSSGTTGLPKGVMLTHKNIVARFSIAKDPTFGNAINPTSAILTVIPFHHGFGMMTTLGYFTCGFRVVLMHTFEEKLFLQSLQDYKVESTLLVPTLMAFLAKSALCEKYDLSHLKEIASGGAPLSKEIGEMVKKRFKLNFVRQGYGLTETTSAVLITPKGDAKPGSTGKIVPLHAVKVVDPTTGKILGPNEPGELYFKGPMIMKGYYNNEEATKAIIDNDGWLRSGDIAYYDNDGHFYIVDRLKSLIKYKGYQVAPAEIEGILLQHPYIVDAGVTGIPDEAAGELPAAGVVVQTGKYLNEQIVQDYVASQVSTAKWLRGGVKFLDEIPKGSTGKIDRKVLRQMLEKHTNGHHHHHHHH
Chain of UltraGlo luciferase variant Triple+300 (H244W, T344A, I396K, C300G), SEQ ID NO: 11 (Q27757 other isoform, or with tags, fused parts or gaps with the stated changes): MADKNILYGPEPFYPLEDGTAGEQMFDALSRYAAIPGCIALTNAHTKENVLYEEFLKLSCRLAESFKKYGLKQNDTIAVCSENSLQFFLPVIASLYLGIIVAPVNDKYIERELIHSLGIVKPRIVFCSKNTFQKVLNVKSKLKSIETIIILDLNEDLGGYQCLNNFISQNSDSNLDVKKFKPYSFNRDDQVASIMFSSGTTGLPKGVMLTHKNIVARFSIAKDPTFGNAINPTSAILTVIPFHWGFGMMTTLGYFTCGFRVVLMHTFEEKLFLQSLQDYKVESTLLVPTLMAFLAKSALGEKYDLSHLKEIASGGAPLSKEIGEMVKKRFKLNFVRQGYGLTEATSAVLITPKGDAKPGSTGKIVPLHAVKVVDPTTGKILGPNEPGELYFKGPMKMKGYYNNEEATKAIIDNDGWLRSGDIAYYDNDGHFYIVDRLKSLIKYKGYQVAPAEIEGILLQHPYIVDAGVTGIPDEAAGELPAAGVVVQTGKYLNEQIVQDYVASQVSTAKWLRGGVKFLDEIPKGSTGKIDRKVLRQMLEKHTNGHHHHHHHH

Take `O=C(O)c1csc(-c2nc3cc(F)c(O)cc3s2)n1` [dehydro-F-luciferin]: the inhibitory constant (Ki) stood at 71.8 nM in experiment [1] (BrightGlo buffer), 563 nM in experiment [1] (Detection Reagent buffer), 39.9 nM in experiment [2] (BrightGlo buffer) and 420 nM in experiment [2] (Detection Reagent buffer).
